Reference: PubChem BioAssay AID1117323
pIC50: −log10 of the molar value. Active and inactive are the calls of the source. No rule for the calls is given here.

test system: SNU-C1 viability, CellTiter-Glo ATP luminescence; assay: SNU-C1 cell viability reduction, dose response, CellTiter-Glo luminescence (AID 1117323)

| SMILES | pIC50 | IC50 |
| --- | --- | --- |
| CCCCCCCCCCCCCC[N+](C)(C)C | 8.29 | – |
| O=C1[O][Bi][O]c2ccccc21 | – | 15400 nM (inactive) |
| Cc1ccc([N+](=O)[O-])[c]2c1[O][Hg]2 | 6.69 | – |
| OCCN1CCN(CC/C=C2/c3ccccc3Sc3ccc(C(F)(F)F)cc32)CC1 | 5.99 | – |
| O=C(O)C1(C(=O)O)CCC1.[NH2-].[NH2-].[Pt+2] | – | > 20000 nM (inactive) |
| CC[C@]1(O)C[C@@H]2CN(CCc3c([nH]c4ccccc34)[C@@](C(=O)OC)(c3cc4c(cc3OC)N(C)[C@H]3[C@@](O)(C(=O)OC)[C@H](OC(C)=O)[C@]5(CC)C=CCN6CC[C@]43[C@@H]65)C2)C1 | – | > 20000 nM (inactive) |
| CC(=O)[O][Hg][c]1ccccc1 | 6.72 | – |
